# Test results as given in patent US10695275B2, “Anti-aging composition” (NEOPHARM CO., LTD., priority 2016, dated 2020).
# Tests used:
# Type in all cases: cell-based
# human fibroblasts = experiment: type-1 collagen synthesis in human fibroblasts (PICP EIA kit); conditions: 24 hours
# Description: N-(2-hydroxyethyl)octanamide was added to a culture medium of human fibroblasts (DMEM medium, 10% fetal bovine serum, 1% antibiotics) to confirm the effect of accelerating type-1 collagen synthesis in a cell level. The measurement of the synthesized collagen was qualified using a procollagen type I C-peptide enzyme immunoassay kit (PICP EIA kit).
# The human fibroblast culture medium was used to aliquot the human-derived fibroblasts (human fibroblasts) into 6 wells at 2×10^5 cell/well. After cell adhesion was confirmed, the culture medium was treated with 2 ml of N-(2-hydroxyethyl)octanamide as an effective component (anti-aging composition) per each well, at a concentration of 20 uM. After the culture medium was cultured in an incubator under a condition of 37° C. and 5% CO2 for 24 hours, type-1 collagen which is related to a wrinkle forming factor was measured in a cell extract. Here, the concentration of the anti-aging composition is within a range being not toxic and not deriving cell proliferation, when treating human-derived fibroblasts. […]
# The effect of accelerating type-1 collagen synthesis was confirmed in the same manner as in Example 1, except that the effective component was not used (a negative control). In addition, type-1 collagen synthesis ability relative to the negative control was calculated as a ratio, and represented by a rate of increase. […]
# [1] = system: Artificial skin (EpiDermFT); experiment: collagen fiber staining (Masson's Trichrome) in artificial skin; conditions: 0.1%, 100 μl applied on the surface, 24 hours
# Excerpt: When photo-aging of the skin proceeds by ultraviolet rays, a collagen fiber network in an epidermis-dermis junction is damaged. Thus, the amount and form of collagen fiber is used as an indicator of skin photo-aging. The skin tissue of a hairless mouse which was irradiated with ultraviolet rays after N-(2-hydroxyethyl)octanamide was applied, was stained with Masson's Trichrome, observed using an optical microscope (IX71, Olympus, JPN), and then photographed using a digital camera (DP71, Olympus, JPN).
# Artificial skin (EpiDermFT™ from MatTek, Ashland, USA) was purchased, and stabilized in an exclusive medium (EFT-400) for 18 hours. On the surface of the artificial skin, 100 μl of N-(2-hydroxyethyl)octanamide as an effective component (anti-aging composition) at a concentration of 0.1% was applied. After 24 hours, the artificial skin tissue was immobilized with 10% formaldehyde, and embedded with paraffin, and a tissue sliced at 5 μm was stained with Masson's Trichrome (M&T), thereby observing a staining degree of collagen fiber. The results were illustrated in the following FIG. 2.
# [2] = system: human-derived fibroblasts; experiment: toxicity / cell proliferation in human-derived fibroblasts; conditions: concentration of 20 uM
smiles,measurement,setting,value
"CCCCCCCC(=O)NCCO [Example 1, N-(2-hydroxyethyl)octanamide]",Rate of increase (%) of type-1 collagen synthesis relative to negative control,"human fibroblasts; 20 uM, ratio to Comparative Example 1 (non-treated)",750%
same,type-1 collagen concentration (20 uM),"human fibroblasts; human fibroblasts treated at 20 uM, measured in cell extract",0.015
same,staining degree of collagen fiber (aniline blue) in the dermal layer under the epidermis,[1],strongly stained
same,toxicity to human-derived fibroblasts,[2],not toxic
